Consider 44 molecules from US20100063047A1 (KALYPSYS, INC., priority 2008, published 2010).

Where only a bound is given, the exact number is not on record here.

What is called EC50 is the concentration at which the effect is half-maximal.

This test deals with T1, human H1 (Homo sapiens, UniProt P35367).
T1 construct: host or cells: CHO-K1, also expressing mitochondrion-targeted aequorin
T1 sequence (P35367 whole entry): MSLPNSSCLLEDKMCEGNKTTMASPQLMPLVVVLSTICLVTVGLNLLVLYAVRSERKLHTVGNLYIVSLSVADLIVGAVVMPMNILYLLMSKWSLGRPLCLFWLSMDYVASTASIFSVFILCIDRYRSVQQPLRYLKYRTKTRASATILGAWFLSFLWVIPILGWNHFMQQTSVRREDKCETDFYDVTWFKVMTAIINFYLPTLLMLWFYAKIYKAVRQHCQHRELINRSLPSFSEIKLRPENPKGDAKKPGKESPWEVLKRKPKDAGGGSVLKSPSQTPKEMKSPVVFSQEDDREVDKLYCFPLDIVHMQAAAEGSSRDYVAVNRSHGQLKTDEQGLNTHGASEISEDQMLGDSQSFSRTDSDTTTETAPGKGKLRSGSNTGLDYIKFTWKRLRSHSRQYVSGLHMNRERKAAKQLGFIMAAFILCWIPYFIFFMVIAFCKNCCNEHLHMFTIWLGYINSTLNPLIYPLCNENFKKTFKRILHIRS
The experiment in a line: In vitro histamine H1 receptor cell-based aequorin bioluminescence antagonist assay. To be noted: CHO-K1 cells expressing human H1 and aequorin; histamine at EC80; read-out: H1 Antagonist EC50. The method, then: In vitro Histamine Receptor Cell-Based Assays
The cell-based assays utilize an aequorin dependent bioluminescence signal. Doubly-transfected, stable CHO—K1 cell lines expressing human H1 or H4, mitochondrion-targeted aequorin, and (H4 only) human G protein Gα16 are obtained from Perkin-Elmer. Cells are maintained in F12 (Ham's) growth medium, containing 10% (vol./vol.) fetal bovine serum, penicillin (100 IU/mL), streptomycin (0.1 mg/mL), zeocin (0.25 mg/mL) and geneticin (0.40 mg/mL). Cell media components are from Invitrogen, Inc. One day prior to assay, the growth medium is replaced with the same, excluding zeocin and geneticin.
For assay preparation, growth medium is aspirated, and cells are rinsed with calcium-free, magnesium-free phosphate-buffered saline, followed by two to three minute incubation in Versene (Invitrogen, Inc.) at 37° C. Assay medium (DMEM:F12 [50:50], phenol-red free, containing 1 mg/mL protease-free bovine serum albumin) is added to collect the released cells, which are then centrifuged. The cell pellet is re-suspended in assay medium, centrifuged once more, and re-suspended in assay medium to a final density of 5×10^6 cells/mL. Coelenterazine-h dye (500 μM in ethanol) is added to a final concentration of 5 μM, and mixed immediately. The conical tube containing the cells is then wrapped with foil to protect the light-sensitive dye. The cells are incubated for four hours further at room temperature (approximately 21° C.) with end-over-end rotation to keep them in suspension.
Just before assay, the dye-loaded cells are diluted to 0.75×10^6 cells/mL (H1 receptor) or 1.5×10^6 cells/mL (H4 receptor) with additional assay medium. Cells are dispensed to 1536 well micro-titer plates at 3 μL/well. To assay receptor antagonism, 60 nl of 100× concentration test compounds in 100% dimethyl sulfoxide (DMSO) are dispensed to the wells, one compound per well, by passive pin transfer, and the plates are incubated for 15 minutes at room temperature. […] The pipette dispenses 3 μL/well of agonist (histamine, at twice the final concentration, where final concentration is a previously determined EC80) in assay medium, with concurrent bioluminescence detection. Agonist activity of test compounds is excluded by separate assays that measure response to test compounds immediately, without added histamine agonist.
CCD image capture on the Lumilux includes a 5 second baseline read prior to agonist addition, and generally a 40 second read per plate after agonist addition. A decrease in bioluminescence signal (measured either as area-under-the-curve, or maximum signal amplitude minus minimum signal amplitude) correlates with receptor antagonism in a dose dependent manner. The negative control is DMSO lacking any test compound. For antagonist assays, the positive controls are diphenhydramine (2-Diphenylmethoxy-N,N-dimethylethylamine, 10 μM final concentration, H1 receptor) or JNJ7777120 (1-[(5-Chloro-1H-indol-2-yl)carbonyl]-4-methyl-piperazine, 10 μM final concentration, H4 receptor). Efficacy is measured as a percentage of positive control activity.
In the case of `Cc1csc2ncnc(N3CCN(c4ccc(Cl)cc4)CC3)c12` [Example 6, 4-(4-(4-chlorophenyl)piperazin-1-yl)-5-methylthieno[2,3-d]pyrimidine], the half-maximal effective concentration (EC50) was greater than 10 µM.

In the case of `CCc1cc2c(N3CCN(Cc4ccccc4)CC3)ncnc2s1` [Example 14, 4-(4-benzylpiperazin-1-yl)-6-ethylthieno[2,3-d]pyrimidine], the half-maximal effective concentration (EC50) is greater than 10 µM.

For `COc1cccc(CCNc2ncnc3scc(C)c23)c1` [Example 16, [2-(3-Methoxyphenyl)ethyl](5-methylthiopheno[3,2-e]pyrimidin-4-yl)amine], the EC50 was greater than 10 µM.

Consider `Cc1csc2ncnc(NCCc3ccc(F)cc3)c12` [Example 17], for which the EC50 was greater than 10 µM.

With `Cc1csc2ncnc(NCCc3cccc(F)c3)c12` [Example 18], the EC50 is greater than 10 µM.

`Cc1ccc(CCNc2ncnc3scc(C)c23)cc1` [Example 19]: the EC50 was greater than 10 µM.

Turning to `Cc1cccc(CCNc2ncnc3scc(C)c23)c1` [Example 20], the EC50 was greater than 10 µM.

As to `Cc1csc2ncnc(NC3CCC(C)CC3)c12` (centres unmarked) [Example 21, (4-Methylcyclohexyl)(5-methylthiopheno[3,2-e]pyrimidin-4-yl)amine], the EC50 is greater than 10 µM.

Consider `CCC1CCC(Nc2ncnc3scc(C)c23)CC1` (centres unmarked) [Example 22, (4-Ethylcyclohexyl)(5-methylthiopheno[3,2-e]pyrimidin-4-yl)amine], for which the EC50 is greater than 10 µM.

As to `Cc1csc2ncnc(CCCc3ccc(Cl)cc3)c12` [Example 23, 4-(3-(4-chlorophenyl)propyl)-5-methylthieno[2,3-d]pyrimidine], the EC50 is greater than 10 µM.

For `Cc1csc2ncnc(C(=O)CCc3ccc(Cl)cc3)c12` [Example 25, 3-(4-chlorophenyl)-1-(5-methylthieno[2,3-d]pyrimidin-4-yl)propan-1-one], the EC50 was greater than 10 µM.

In the case of `Cc1csc2ncnc(OCCc3ccc(Cl)cc3)c12` [Example 26, 4-(4-chlorophenethoxy)-5-methylthieno[2,3-d]pyrimidine], the EC50 is greater than 10 µM.

As to `Cc1csc2ncnc(NCC3CCc4cc(Cl)ccc43)c12` (centres unmarked) [Example 30, N-((5-chloro-2,3-dihydro-1H-inden-1-yl)methyl)-5-methylthieno[2,3-d]pyrimidin-4-amine], the concentration giving a half-maximal response (EC50) was greater than 10 µM.

As for `Cc1csc2ncnc(NC(=O)Cc3ccc(Cl)cc3)c12` [Example 31, 2-(4-chlorophenyl)-N-(5-methylthieno[2,3-d]pyrimidin-4-yl)acetamide], the concentration giving a half-maximal response (EC50) was greater than 10 µM.

In the case of `Cc1csc2nccc(NCCc3ccc(Cl)cc3)c12` [Example 36, N-(4-chlorophenethyl)-3-methylthieno[2,3-b]pyridin-4-amine], the EC50 is greater than 10 µM.

In the case of `COc1ccc(CCNc2ccnc3scc(C)c23)cc1` [Example 37, N-(4-methoxyphenethyl)-3-methylthieno[2,3-b]pyridin-4-amine], the EC50 is greater than 10 µM.

`Clc1ccc(CCNc2ccnc3sccc23)cc1` [Example 38, N-(4-chlorophenethyl)thieno[2,3-b]pyridin-4-amine]: the EC50 was greater than 10 µM.

Consider `Cc1csc2ncnc(NC3CCCC(C)C3)c12` (centres unmarked) [Example 41, 5-methyl-N-(3-methylcyclohexyl)thieno[2,3-d]pyrimidin-4-amine], for which the concentration for a half-maximal effect (EC50) is greater than 10 µM.

On to `Fc1ccccc1CCNc1ncnc2sc3c(c12)CCCC3` [Example 42, N-[2-(2-fluorophenyl)ethyl]-8-thia-4,6-diazatricyclo[7.4.0.0^{2,7}]trideca-1(9),2(7),3,5-tetraen-3-amine], for which the EC50 was greater than 10 µM.

`CCOC(=O)C1CCN(c2ncnc3scc(C)c23)CC1` [Example 44, ethyl 1-{5-methylthieno[2,3-d]pyrimidin-4-yl}piperidine-4-carboxylate]: the EC50 is greater than 10 µM.

Turning to `Cc1csc2ncnc(NCCc3ccc(Cl)cc3)c12` [Example 46, N-[2-(4-chlorophenyl)ethyl]-5-methylthieno[2,3-d]pyrimidin-4-amine], the EC50 was greater than 10 µM.

Turning to `CCCCNc1ncnc2scc(-c3ccccc3)c12` [Example 47, N-butyl-5-phenylthieno[2,3-d]pyrimidin-4-amine], the 50% effective concentration (EC50) was greater than 10 µM.

Take `COc1ccc(CCNc2ncnc3sccc23)cc1` [Example 48, N-[2-(4-methoxyphenyl)ethyl]thieno[2,3-d]pyrimidin-4-amine]: the concentration giving a half-maximal response (EC50) is greater than 10 µM.

For `Cc1csc2ncnc(NC3CCC3)c12` [Example 58, N-cyclobutyl-5-methylthieno[2,3-d]pyrimidin-4-amine], the EC50 was greater than 10 µM.

As to `Cc1csc2ncnc(NCC3CC3)c12` [Example 59, N-(cyclopropylmethyl)-5-methylthieno[2,3-d]pyrimidin-4-amine], the EC50 was greater than 10 µM.

For `Cc1csc2ncnc(NC3CCCC3)c12` [Example 65, N-cyclopentyl-5-methylthieno[2,3-d]pyrimidin-4-amine], the EC50 was greater than 10 µM.

With `CCCC(C)Nc1ncnc2scc(C)c12` (centres unmarked) [Example 66, 5-methyl-N-(pentan-2-yl)thieno[2,3-d]pyrimidin-4-amine], the EC50 was greater than 10 µM.

On to `CCC(C)CNc1ncnc2scc(C)c12` (centres unmarked) [Example 67, 5-methyl-N-(2-methylbutyl)thieno[2,3-d]pyrimidin-4-amine], for which the EC50 was greater than 10 µM.

Regarding `Cc1csc2ncnc(NC(C)C(C)C)c12` (centres unmarked) [Example 68, 5-methyl-N-(3-methylbutan-2-yl)thieno[2,3-d]pyrimidin-4-amine], the EC50 was greater than 10 µM.

As to `Cc1csc2ncnc(NCCC(C)C)c12` [Example 69, 5-methyl-N-(3-methylbutyl)thieno[2,3-d]pyrimidin-4-amine], the concentration for a half-maximal effect (EC50) was greater than 10 µM.

For the molecule `COCC(C)Nc1ncnc2scc(C)c12` (centres unmarked) [Example 71, N-(1-methoxypropan-2-yl)-5-methylthieno[2,3-d]pyrimidin-4-amine], the EC50 was greater than 10 µM.

For the molecule `CCC(CO)Nc1ncnc2scc(C)c12` (centres unmarked) [Example 72, 2-({5-methylthieno[2,3-d]pyrimidin-4-yl}amino)butan-1-ol], the EC50 was greater than 10 µM.

Consider `CCC(CO)Nc1ncnc2scc(C)c12` (centres unmarked) [Example 73, 2-({5-methylthieno[2,3-d]pyrimidin-4-yl}amino)butan-1-ol], for which the EC50 was greater than 10 µM.

For `Cc1csc2ncnc(NCc3ccco3)c12` [Example 75, N-(furan-2-ylmethyl)-5-methylthieno[2,3-d]pyrimidin-4-amine], the concentration giving a half-maximal response (EC50) is greater than 10 µM.

Regarding `Cc1csc2ncnc(NC3CCCCC3)c12` [Example 76, N-cyclohexyl-5-methylthieno[2,3-d]pyrimidin-4-amine], the EC50 was greater than 10 µM.

In the case of `Cc1csc2ncnc(NCC3CCCO3)c12` (centres unmarked) [Example 77, 5-methyl-N-(oxolan-2-ylmethyl)thieno[2,3-d]pyrimidin-4-amine], the EC50 was greater than 10 µM.

As to `Cc1csc2ncnc(NCCC(C)(C)C)c12` [Example 78, N-(3,3-dimethylbutyl)-5-methylthieno[2,3-d]pyrimidin-4-amine], the 50% effective concentration (EC50) was greater than 10 µM.

For `Cc1csc2ncnc(NC(C)CC(C)C)c12` (centres unmarked) [Example 79, 5-methyl-N-(4-methylpentan-2-yl)thieno[2,3-d]pyrimidin-4-amine], the EC50 is greater than 10 µM.

Consider `Cc1csc2ncnc(NC(CO)C(C)C)c12` (centres unmarked) [Example 82, 3-methyl-2-({5-methylthieno[2,3-d]pyrimidin-4-yl}amino)butan-1-ol], for which the EC50 was greater than 10 µM.

For the molecule `Cc1csc2ncnc(NCc3ccccc3)c12` [Example 83, N-benzyl-5-methylthieno[2,3-d]pyrimidin-4-amine], the EC50 was greater than 10 µM.

`Cc1csc2ncnc(NCc3cccs3)c12` [Example 87, 5-methyl-N-(thiophen-2-ylmethyl)thieno[2,3-d]pyrimidin-4-amine]: the EC50 is greater than 10 µM.

On to `Cc1csc2ncnc(NCC3CCCCC3)c12` [Example 89, N-(cyclohexylmethyl)-5-methylthieno[2,3-d]pyrimidin-4-amine], for which the EC50 is greater than 10 µM.

Take `Cc1csc2ncnc(NC3CCCCCC3)c12` [Example 90, N-cycloheptyl-5-methylthieno[2,3-d]pyrimidin-4-amine]: the EC50 was greater than 10 µM.

On to `Cc1csc2ncnc(NC3CCCCC3C)c12` (centres unmarked) [Example 91, 5-methyl-N-(2-methylcyclohexyl)thieno[2,3-d]pyrimidin-4-amine], for which the EC50 is greater than 10 µM.
